In ChEMBL document CHEMBL4422624, “A novel class of anthraquinone-based HDAC6 inhibitors” (Eur J Med Chem, 2019):
Active and inactive are the calls of the source. No cut-off for these calls is given here.

How the values were obtained:
[1] = target: T1, Histone deacetylase 1 (Homo sapiens, UniProt Q13547); assay: Inhibition of human recombinant HDAC1 using fluorogenic HDAC substrate-3 by fluorescence assay
[2] = target: Histone deacetylase 2 (Homo sapiens, UniProt Q92769); assay: Inhibition of HDAC2 (unknown origin) using fluorogenic HDAC substrate-3 by fluorescence assay
[3] = target: Histone deacetylase 3 (Homo sapiens, UniProt O15379); assay: Inhibition of human recombinant HDAC3 using fluorogenic HDAC substrate-3 by fluorescence assay
[4] = target: T2, Histone deacetylase 8 (Homo sapiens, UniProt Q9BY41); assay: Inhibition of human recombinant HDAC8 using fluorogenic HDAC substrate class 2A by fluorescence assay
T2 sequence (Q9BY41 whole entry): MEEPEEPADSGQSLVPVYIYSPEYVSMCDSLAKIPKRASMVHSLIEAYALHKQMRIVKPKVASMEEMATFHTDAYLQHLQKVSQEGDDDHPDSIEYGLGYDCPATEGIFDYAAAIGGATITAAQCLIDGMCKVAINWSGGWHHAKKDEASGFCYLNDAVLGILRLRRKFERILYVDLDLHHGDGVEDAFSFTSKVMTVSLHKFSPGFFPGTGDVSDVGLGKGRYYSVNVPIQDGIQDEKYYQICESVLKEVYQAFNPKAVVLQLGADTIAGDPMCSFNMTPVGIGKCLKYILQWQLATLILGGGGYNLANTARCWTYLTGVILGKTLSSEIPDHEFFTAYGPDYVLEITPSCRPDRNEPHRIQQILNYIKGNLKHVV

[5] = target: Histone deacetylase 4 (Homo sapiens, UniProt P56524); assay: Inhibition of human recombinant HDAC4 using fluorogenic HDAC substrate class 2A by fluorescence assay
[6] = target: Histone deacetylase 5 (Homo sapiens, UniProt Q9UQL6); assay: Inhibition of human recombinant HDAC5 using fluorogenic HDAC substrate class 2A by fluorescence assay
[7] = target: Histone deacetylase 9 (Homo sapiens, UniProt Q9UKV0); assay: Inhibition of human recombinant HDAC9 using fluorogenic HDAC substrate class 2A by fluorescence assay
[8] = target: T3, Protein deacetylase HDAC6 (Homo sapiens, UniProt Q9UBN7); assay: Inhibition of human recombinant HDAC6 using fluorogenic HDAC substrate-3 by fluorescence assay
T3 sequence (Q9UBN7 whole entry): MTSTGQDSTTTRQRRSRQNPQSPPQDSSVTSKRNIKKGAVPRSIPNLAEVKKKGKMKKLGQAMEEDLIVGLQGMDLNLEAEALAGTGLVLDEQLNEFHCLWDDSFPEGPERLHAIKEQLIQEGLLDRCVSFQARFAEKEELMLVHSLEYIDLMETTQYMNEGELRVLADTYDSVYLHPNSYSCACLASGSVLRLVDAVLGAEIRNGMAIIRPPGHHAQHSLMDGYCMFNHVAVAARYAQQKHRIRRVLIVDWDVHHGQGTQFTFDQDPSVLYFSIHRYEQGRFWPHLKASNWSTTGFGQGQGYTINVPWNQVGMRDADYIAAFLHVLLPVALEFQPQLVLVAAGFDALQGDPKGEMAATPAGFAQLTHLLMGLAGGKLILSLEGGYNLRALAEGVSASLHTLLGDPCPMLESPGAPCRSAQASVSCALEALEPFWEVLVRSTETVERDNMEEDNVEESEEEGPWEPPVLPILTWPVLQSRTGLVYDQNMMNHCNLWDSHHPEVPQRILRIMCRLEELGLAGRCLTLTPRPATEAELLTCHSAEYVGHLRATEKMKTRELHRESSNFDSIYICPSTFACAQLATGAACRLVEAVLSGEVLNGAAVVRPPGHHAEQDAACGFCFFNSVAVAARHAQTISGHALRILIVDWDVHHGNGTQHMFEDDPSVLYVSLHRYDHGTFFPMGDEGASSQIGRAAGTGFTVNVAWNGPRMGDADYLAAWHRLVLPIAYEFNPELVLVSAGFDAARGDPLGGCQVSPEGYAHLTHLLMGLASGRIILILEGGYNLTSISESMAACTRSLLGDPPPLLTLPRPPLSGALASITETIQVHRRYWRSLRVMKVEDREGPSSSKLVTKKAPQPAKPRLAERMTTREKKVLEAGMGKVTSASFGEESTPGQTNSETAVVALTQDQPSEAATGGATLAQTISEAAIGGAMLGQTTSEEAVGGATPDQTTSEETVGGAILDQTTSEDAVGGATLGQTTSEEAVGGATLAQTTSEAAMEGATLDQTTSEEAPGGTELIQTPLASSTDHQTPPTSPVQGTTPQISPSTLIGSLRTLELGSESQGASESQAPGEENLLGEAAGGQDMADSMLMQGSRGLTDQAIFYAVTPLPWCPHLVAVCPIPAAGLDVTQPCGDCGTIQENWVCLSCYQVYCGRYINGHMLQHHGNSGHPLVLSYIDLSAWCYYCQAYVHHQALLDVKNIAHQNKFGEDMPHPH

[9] = target: T4, Polyamine deacetylase HDAC10 (Homo sapiens, UniProt Q969S8); assay: Inhibition of HDAC10 (unknown origin) by fluorescence assay
T4 sequence (Q969S8 whole entry): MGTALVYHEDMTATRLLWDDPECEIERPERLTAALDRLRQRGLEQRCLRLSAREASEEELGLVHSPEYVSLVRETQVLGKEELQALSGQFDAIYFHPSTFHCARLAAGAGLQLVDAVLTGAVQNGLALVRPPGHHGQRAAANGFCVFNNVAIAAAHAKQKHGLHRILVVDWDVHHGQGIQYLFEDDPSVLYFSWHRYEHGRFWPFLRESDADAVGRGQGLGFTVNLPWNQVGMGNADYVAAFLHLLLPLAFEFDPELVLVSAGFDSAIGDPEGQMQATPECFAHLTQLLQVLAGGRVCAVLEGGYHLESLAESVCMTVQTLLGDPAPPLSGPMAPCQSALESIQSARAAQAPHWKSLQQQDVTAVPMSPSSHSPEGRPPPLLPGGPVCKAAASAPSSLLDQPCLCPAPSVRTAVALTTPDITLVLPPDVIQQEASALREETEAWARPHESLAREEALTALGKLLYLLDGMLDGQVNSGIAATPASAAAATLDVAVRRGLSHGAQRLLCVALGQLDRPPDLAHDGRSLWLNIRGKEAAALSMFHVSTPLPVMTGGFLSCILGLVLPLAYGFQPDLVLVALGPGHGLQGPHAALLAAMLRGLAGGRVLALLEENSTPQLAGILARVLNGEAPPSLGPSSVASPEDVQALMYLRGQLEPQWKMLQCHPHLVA

[10] = target: T5, Histone deacetylase 11 (Homo sapiens, UniProt Q96DB2); assay: Inhibition of human recombinant HDAC11 using fluorogenic HDAC substrate class 2A by fluorescence assay
T5 sequence (Q96DB2 whole entry): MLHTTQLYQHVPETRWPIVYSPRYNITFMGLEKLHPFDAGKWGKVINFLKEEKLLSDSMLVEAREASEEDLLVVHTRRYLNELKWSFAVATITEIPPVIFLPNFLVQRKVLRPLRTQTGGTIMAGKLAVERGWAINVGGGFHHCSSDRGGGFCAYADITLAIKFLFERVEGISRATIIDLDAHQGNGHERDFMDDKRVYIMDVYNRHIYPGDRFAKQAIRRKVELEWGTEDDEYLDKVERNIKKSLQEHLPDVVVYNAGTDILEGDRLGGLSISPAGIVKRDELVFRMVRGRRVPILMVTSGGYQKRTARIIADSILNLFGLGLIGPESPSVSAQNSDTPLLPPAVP

[11] = tested on: SH-SY5Y; assay: Cytotoxicity against human SH-SY5Y cells assessed as reduction in cell viability after 3 days by MTS assay; type: functional; details: for GI50: 72 h
[12] = target: T6, Protein deacetylase HDAC6 (Homo sapiens) (UniProt Q9UBN7); assay: Inhibition of HDAC6 in human SH-SY5Y cells assessed as increase in alpha-tubulin acetylation after 24 hrs by Western blot analysis; type: cell-based
T6 sequence (whole entry): T3 sequence (Q9UBN7 whole entry)

[13] = target: T6, Protein deacetylase HDAC6 (Homo sapiens); assay: Inhibition of HDAC6 in human SH-SY5Y cells assessed as increase in alpha-tubulin acetylation at 0.5 uM after 24 hrs by Western blot analysis; type: cell-based
[14] = target: T1, Histone deacetylase 1; assay: Inhibition of HDAC1 in human SH-SY5Y cells assessed as increase in histone H3 acetylation up to 20 uM after 24 hrs by Western blot analysis; type: cell-based
[15] = target: T6, Protein deacetylase HDAC6 (Homo sapiens); assay: Inhibition of HDAC6 in human H1975 cells assessed as alpha-tubulin acetylation up to 10 uM after 24 hrs by Hoechst staining-based fluorescence microscopic analysis; type: cell-based
[16] = target: T6, Protein deacetylase HDAC6 (Homo sapiens); assay: Inhibition of HDAC6 in human H1975 cells assessed as microtubule polymerization up to 10 uM after 24 hrs by Hoechst staining-based fluorescence microscopic analysis; type: cell-based
[17] = target: T7, Histone deacetylase 7 (Homo sapiens, UniProt Q8WUI4); assay: Inhibition of human recombinant HDAC7 using fluorogenic HDAC substrate class 2A by fluorescence assay
T7 sequence (Q8WUI4 whole entry): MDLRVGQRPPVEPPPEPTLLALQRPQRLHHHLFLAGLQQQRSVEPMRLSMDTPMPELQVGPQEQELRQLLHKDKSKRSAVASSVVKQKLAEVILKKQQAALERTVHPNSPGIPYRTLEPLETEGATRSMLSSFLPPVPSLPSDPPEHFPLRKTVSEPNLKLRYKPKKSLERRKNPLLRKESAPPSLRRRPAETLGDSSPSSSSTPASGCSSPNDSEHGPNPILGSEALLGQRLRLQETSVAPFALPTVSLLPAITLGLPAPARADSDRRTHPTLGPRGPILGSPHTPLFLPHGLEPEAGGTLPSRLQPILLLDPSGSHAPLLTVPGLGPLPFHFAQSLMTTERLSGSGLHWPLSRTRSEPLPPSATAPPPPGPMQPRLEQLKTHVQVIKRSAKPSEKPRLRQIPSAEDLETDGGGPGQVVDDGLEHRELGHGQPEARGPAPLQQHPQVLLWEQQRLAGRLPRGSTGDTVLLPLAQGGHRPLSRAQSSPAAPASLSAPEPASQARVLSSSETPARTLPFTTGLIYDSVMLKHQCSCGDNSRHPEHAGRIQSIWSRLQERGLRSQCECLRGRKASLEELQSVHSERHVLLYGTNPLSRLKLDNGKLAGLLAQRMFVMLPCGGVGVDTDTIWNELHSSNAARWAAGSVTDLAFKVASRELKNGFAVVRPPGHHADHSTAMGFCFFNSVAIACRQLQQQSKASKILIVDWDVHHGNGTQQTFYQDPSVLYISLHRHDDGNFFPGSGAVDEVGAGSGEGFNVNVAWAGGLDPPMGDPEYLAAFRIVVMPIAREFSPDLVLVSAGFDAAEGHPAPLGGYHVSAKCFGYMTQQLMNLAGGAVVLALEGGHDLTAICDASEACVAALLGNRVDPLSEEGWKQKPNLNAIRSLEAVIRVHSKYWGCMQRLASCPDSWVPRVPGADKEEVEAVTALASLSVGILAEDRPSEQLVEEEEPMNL

T1 sequence (Q13547 whole entry): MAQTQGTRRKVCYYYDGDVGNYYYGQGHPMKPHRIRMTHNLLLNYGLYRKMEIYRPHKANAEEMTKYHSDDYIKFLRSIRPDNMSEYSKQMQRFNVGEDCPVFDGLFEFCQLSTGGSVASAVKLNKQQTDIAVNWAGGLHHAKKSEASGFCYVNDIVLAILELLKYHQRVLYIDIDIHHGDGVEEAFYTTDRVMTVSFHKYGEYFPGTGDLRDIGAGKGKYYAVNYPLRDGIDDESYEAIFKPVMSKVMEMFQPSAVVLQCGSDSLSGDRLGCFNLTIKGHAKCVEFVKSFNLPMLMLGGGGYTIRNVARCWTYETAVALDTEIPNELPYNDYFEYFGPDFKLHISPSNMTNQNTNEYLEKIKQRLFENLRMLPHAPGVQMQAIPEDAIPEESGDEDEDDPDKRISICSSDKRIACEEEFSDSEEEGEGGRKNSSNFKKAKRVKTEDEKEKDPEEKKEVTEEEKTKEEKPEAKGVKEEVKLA
Sequence of Histone deacetylase 5 (Q9UQL6 whole entry): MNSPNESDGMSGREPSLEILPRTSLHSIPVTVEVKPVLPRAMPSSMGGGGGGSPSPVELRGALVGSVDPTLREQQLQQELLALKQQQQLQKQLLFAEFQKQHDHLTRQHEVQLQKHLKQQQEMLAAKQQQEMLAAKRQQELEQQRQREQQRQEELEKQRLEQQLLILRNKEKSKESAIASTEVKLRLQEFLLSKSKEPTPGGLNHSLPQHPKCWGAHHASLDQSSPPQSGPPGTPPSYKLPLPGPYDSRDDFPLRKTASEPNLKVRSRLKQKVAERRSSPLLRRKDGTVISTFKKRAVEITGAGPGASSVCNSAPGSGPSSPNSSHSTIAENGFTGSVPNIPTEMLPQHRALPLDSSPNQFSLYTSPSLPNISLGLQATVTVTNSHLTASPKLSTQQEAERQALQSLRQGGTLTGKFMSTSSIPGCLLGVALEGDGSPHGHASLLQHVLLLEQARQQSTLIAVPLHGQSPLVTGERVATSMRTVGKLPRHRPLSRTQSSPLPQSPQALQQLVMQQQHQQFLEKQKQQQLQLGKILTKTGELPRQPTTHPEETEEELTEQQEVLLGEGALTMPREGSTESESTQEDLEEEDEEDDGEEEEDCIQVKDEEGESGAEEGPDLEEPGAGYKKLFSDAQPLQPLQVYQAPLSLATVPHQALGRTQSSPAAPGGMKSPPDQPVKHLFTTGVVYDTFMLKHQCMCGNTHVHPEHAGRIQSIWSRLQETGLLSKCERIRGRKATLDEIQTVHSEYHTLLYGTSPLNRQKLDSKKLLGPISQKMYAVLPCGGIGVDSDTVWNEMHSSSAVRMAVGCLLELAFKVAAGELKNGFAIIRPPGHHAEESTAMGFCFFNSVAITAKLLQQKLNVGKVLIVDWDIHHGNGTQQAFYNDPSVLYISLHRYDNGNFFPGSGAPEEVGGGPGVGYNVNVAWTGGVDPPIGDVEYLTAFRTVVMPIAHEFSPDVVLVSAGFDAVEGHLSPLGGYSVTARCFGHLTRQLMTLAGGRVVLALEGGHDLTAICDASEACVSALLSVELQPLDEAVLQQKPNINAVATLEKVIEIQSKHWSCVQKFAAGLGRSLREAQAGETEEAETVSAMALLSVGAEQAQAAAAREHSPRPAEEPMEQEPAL
Sequence of Histone deacetylase 4 (P56524 whole entry): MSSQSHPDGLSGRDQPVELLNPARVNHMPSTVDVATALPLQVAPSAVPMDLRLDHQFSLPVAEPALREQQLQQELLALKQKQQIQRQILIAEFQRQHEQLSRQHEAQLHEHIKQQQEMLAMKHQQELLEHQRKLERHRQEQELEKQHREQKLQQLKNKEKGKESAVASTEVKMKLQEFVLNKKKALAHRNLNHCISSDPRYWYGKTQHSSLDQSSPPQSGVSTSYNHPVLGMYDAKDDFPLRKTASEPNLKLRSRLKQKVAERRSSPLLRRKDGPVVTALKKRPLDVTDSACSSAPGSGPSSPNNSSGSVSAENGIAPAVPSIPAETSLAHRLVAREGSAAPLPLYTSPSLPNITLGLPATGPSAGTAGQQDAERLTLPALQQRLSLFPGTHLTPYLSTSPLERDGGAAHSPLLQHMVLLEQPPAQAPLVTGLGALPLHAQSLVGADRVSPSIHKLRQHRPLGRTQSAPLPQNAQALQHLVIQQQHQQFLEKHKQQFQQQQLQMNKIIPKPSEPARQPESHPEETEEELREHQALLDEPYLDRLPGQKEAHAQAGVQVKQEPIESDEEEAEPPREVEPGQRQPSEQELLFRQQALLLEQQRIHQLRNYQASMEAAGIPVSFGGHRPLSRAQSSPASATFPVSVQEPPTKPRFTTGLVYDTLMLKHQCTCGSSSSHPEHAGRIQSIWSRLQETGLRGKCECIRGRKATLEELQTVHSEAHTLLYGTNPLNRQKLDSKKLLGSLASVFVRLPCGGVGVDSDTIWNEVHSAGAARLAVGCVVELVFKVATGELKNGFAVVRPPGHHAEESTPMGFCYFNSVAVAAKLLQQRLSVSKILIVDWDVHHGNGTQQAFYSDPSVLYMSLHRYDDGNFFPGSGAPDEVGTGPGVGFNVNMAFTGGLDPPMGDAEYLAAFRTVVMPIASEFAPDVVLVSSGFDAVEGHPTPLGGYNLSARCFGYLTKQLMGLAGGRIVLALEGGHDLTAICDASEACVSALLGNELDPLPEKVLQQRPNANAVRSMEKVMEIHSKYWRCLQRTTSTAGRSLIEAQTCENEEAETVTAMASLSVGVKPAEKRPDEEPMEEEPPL
Sequence of Histone deacetylase 2 (Q92769 whole entry): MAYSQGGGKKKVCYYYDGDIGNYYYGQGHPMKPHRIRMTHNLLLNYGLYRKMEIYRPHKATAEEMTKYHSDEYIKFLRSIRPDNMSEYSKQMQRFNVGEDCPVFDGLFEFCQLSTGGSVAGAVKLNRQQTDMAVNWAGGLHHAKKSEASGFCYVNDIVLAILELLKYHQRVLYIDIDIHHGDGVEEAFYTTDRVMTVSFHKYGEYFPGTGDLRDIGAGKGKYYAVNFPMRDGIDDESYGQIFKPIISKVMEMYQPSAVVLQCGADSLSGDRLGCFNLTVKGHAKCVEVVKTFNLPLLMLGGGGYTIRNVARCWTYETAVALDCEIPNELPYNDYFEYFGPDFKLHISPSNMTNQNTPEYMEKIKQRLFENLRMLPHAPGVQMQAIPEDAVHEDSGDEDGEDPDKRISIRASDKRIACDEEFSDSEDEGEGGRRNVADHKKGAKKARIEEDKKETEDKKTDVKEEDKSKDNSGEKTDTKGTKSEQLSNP
Sequence of Histone deacetylase 3 (O15379 whole entry): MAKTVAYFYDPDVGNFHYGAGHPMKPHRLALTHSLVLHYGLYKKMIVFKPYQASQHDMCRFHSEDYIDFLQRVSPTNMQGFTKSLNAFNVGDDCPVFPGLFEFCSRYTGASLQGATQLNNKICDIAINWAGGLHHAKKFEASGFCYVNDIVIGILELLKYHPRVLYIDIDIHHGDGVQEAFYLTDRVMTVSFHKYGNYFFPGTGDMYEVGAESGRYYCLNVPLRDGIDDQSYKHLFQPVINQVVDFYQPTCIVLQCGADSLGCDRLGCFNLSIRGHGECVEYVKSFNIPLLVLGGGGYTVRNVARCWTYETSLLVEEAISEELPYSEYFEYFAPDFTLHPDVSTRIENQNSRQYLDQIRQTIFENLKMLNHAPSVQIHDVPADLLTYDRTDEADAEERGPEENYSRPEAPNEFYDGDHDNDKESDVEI
Sequence of Histone deacetylase 9 (Q9UKV0 whole entry): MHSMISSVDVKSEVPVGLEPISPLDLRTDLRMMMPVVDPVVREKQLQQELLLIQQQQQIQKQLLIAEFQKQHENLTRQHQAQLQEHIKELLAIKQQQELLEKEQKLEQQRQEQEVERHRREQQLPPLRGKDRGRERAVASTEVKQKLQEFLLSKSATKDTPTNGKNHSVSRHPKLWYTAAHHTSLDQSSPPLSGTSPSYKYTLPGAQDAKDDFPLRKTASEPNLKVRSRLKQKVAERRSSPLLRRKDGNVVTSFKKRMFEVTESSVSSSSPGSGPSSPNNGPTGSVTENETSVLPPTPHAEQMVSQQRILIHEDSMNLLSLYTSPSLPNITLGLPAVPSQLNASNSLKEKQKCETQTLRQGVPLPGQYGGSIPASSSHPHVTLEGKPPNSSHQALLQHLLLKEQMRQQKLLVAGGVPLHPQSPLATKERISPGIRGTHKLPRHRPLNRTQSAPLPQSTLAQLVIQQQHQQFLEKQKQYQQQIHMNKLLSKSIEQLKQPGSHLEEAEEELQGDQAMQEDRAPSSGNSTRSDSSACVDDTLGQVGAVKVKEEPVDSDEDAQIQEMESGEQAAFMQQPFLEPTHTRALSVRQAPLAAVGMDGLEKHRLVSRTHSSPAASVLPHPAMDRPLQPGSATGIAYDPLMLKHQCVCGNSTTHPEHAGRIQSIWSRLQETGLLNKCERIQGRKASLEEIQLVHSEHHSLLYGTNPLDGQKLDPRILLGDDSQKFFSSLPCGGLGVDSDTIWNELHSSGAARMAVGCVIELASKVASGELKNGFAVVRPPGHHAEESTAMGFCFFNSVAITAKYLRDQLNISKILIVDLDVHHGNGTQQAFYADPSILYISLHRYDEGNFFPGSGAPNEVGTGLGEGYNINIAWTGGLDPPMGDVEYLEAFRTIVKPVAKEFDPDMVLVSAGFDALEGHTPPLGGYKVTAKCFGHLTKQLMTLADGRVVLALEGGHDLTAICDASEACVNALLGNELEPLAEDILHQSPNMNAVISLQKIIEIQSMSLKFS

Structure (SMILES)	IC50 [1] [µM]	IC50 [2] [µM]	IC50 [3] [µM]	IC50 [4] [µM]	IC50 [5] [µM]	IC50 [6] [µM]	IC50 [7] [µM]	IC50 [8] [µM]	IC50 [9] [µM]	IC50 [10] [µM]	Activity [11]	GI50 [11] [µM]	inhibition [12]	inhibition [13]	inhibition [14]	inhibition [15]	inhibition [16]	IC50 [17] [µM]
O=C(NO)c1ccc2c(c1)C(=O)c1ccccc1C2=O	0.91	4.62	3.95	0.599	5.61	1.36	7.78	0.056	5	80	Dose-dependent effect	15.8	Dose-dependent effect	Active	inactive	Active	Active	
O=C(/C=C/c1ccc2c(c1)C(=O)c1ccccc1C2=O)NO	3.07	13.6	1.97	> 100	16.2	8.59	> 100	0.536	1.47	> 100	Dose-dependent effect	22.3						> 100
